RBA and Response data for eleven molecules are collected here from ChEMBL document CHEMBL1134060, “Synthesis and evaluation of hexahydrochrysene and tetrahydrobenzofluorene ligands for the estrogen receptor” (Bioorg Med Chem Lett, 2001).

Test [1] deals with Estrogen receptor beta (Homo sapiens) (UniProt Q92731). The test is described as follows: Relative binding affinity for human Estrogen receptor beta compared to estradiol (E2).
The target of test [2] is T1, Estrogen receptor (Homo sapiens) (UniProt P03372).
T1 sequence (whole entry): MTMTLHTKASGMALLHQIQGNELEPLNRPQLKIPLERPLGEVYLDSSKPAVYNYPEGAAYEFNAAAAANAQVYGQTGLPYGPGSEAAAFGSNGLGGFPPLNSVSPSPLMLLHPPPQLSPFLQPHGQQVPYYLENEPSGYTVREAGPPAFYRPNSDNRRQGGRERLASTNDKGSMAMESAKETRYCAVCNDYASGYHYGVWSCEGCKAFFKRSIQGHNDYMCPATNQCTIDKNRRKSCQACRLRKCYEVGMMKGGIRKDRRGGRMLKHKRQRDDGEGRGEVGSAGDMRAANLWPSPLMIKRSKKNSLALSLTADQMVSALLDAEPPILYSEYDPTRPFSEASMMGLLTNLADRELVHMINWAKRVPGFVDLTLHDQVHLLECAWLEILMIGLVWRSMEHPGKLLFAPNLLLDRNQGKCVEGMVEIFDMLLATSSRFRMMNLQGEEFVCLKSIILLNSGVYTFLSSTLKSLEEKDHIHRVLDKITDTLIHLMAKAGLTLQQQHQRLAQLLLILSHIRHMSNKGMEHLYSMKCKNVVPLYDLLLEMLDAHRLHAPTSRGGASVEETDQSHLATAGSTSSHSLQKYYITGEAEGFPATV
The test is described as follows: Antagonistic effect on 1 nM estradiol induced transcriptional activation in HEC-1 cells expressing estrogen receptor alpha at 10e-7 M. In kind it is functional, cell-based.

Test [3] addresses Estrogen receptor beta (Homo sapiens) (UniProt Q92731). Briefly: Transcriptional activation in human endometrial carcinoma (HEC-1) cells expressing estrogen receptor beta at 10e-6 M. In kind it is functional.
For test [4] the target is unchanged. Briefly: Transcriptional activation in human endometrial carcinoma (HEC-1) cells expressing estrogen receptor beta at 10e-9 M. In kind it is functional.
The target is the same in test [5]. The test is described as follows: Antagonistic effect on 1 nM estradiol induced transcriptional activation in HEC-1 cells expressing estrogen receptor beta at 10e-6 M. In kind it is functional, cell-based.
Test [6] shares this target. Briefly: Antagonistic effect on 1 nM estradiol induced transcriptional activation in HEC-1 cells expressing estrogen receptor beta at 10e-7 M. In kind it is functional, cell-based.
Test [7] has the same target. Briefly: Antagonistic effect on 1 nM estradiol induced transcriptional activation in HEC-1 cells expressing estrogen receptor beta at 10e-8 M. In kind it is functional, cell-based.
Test [8] concerns the target T1, Estrogen receptor (Homo sapiens). Briefly: Antagonistic effect on 1 nM estradiol induced transcriptional activation in HEC-1 cells expressing estrogen receptor alpha at 10e-6 M. In kind it is functional, cell-based.
Test [9] addresses Estrogen receptor beta (Homo sapiens) (UniProt Q92731). Briefly: Antagonistic effect on 1 nM estradiol induced transcriptional activation in HEC-1 cells expressing estrogen receptor beta at 10e-9 M. In kind it is functional, cell-based.

Chain of Estrogen receptor beta (Homo sapiens) (Q92731 whole entry): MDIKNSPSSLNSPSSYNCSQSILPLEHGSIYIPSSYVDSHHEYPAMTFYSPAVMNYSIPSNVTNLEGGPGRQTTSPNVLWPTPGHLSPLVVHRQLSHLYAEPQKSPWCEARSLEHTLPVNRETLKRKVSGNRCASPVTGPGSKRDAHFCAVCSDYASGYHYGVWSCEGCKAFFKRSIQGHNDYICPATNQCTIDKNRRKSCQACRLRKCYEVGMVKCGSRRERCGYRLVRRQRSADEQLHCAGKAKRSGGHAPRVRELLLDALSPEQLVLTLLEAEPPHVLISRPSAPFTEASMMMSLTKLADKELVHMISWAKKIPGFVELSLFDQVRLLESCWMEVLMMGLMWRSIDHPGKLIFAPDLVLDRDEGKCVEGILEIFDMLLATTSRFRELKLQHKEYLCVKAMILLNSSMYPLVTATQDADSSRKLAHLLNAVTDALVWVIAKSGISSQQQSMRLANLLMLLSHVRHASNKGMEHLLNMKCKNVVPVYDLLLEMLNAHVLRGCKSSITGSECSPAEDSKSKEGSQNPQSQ

Consider `Oc1ccc2c(c1)CC[C@@H]1c3ccc(O)cc3CC[C@H]21`, for which, in test [1], the RBA stood at 71%.
As for `Oc1ccc2c(c1)CC[C@H]1c3ccc(O)cc3CC[C@@H]21`, the RBA in test [1] came to 130%.
For the molecule `CCC1c2cc(O)ccc2[C@H]2CCc3cc(O)ccc3[C@@H]12` (stereo in doubt; 17a), the RBA in [1] turned out to be 300%.
Same read-out and setting: next, `Oc1ccc2c(c1)C[C@@H]1c3ccc(O)cc3CC[C@H]21`: 63%.
In turn, `Oc1ccc2c(c1)CC[C@@H]1c3ccc(O)cc3[C@H](c3ccc(OCCN4CCCCC4)cc3)[C@H]21` came in with an RBA in test [1] of 10%. Also, the Response in [2] stood at 10%; in [3], 5%; in [4], 70%; in test [5], 5%; in test [6], 15%; in test [7] it was 30%.
For `CCC1c2cc(O)ccc2[C@H]2CCc3cc(O)ccc3[C@@H]12` (stereo in doubt; 17b), the RBA in test [1] turned out to be 280%.
Take `CC[C@@H]1Cc2cc(O)ccc2C2=C1c1ccc(O)cc1C[C@H]2CC`: the RBA in test [1] is 144%.
For the molecule `Oc1ccc2c(c1)CCC1=C2CCc2cc(O)ccc21`, the RBA in test [1] is 6.5%.
Same read-out and setting: as for `O=C1c2cc(O)ccc2[C@H]2CCc3cc(O)ccc3[C@@H]12`, the figure is 2%.
On to `Oc1ccc2c(c1)CC[C@@H]1c3ccc(O)cc3C[C@H](c3ccc(OCCN4CCCCC4)cc3)[C@H]21`, for which, in [1], the RBA turned out to be 0.06%. Further, the Response in [8] was 25%; in test [6], 104%; in test [7], 105%; in test [9], 5%.
Regarding `CCC1Cc2cc(O)ccc2C2C(CC)Cc3cc(O)ccc3C12` (stereo unspecified), the RBA in [1] is 16%.
